# Values of other authors in US10716959B2, “Polymer-flavonoid conjugates and hydrogels for biomedical applications” (AGENCY FOR SCIENCE, TECHNOLOGY AND RESEARCH, priority 2013, dated 2020).
# Details: physiological temperature and pH
smiles,measurement,value
"O=C(O[C@@H]1Cc2c(O)cc(O)cc2O[C@@H]1c1cc(O)c(O)c(O)c1)c1cc(O)c(O)c(O)c1 [EGCG, (−)-epigallocatechin-3-gallate]",half-life,less than 30 min
